This is an account of results in EP4635958A1, “PYRIMIDINE-CONTAINING POLYCYCLIC DERIVATIVE INHIBITOR, AND PREPARATION METHOD THEREFOR AND USE THEREOF” (Shanghai Hansoh Biomedical Co., Ltd., priority 2022, dated 2024).

The subject of data set [1] is GP2D. Nature of the data set: Inhibition of proliferation of KRAS G12D mutant tumor cell line GP2D (CellTiter-Glo). The note with it: Homo sapiens, GP2d, 72 h, read-out: GP2D IC50. (In general: ATP-based viability assays read luminescence as a measure of living cells.)
Data set [2] deals with KRAS WT (Homo sapiens, UniProt P01116). Nature of the data set: KRAS WT biochemical assay (Table 1, no method of its own). It is filed as binding. The note with it: read-out: KRAS WT Biochemical IC50.
For data set [3], the target named is T1, KRAS G12D-SOS1 (Homo sapiens, UniProt P01116, G12D).
T1 construct: purchased Cisbio 63ADK000CB17PEG
Nature of the data set: Blocking of KRAS G12D-SOS1 protein binding (Cisbio KRAS-G12D/SOS1 Binding Assay Kit, time-resolved fluorescence). The note with it: KRAS G12D-GTP and SOS1 protein, signal ratio 665nm/620nm; read-out: G12D SOS1 biochemical IC50. The text has this:
• 1. Experimental objective: […] Experimental reagents and instruments The centrifuge (5810R) was purchased from Eppendorf; the pipette was purchased from Eppendorf or Rainin; and the microplate reader was purchased from BioTek (United States) with a model of SynergyH1 multifunctional microplate reader. KRAS-G12D/SOS1 Binding Assay Kit was purchased from Cisbio, with a catalog number of 63ADK000CB17PEG; GTP was purchased from Sigma, with a catalog number of G8877; 384-well plate was purchased from Perkin Elmer, with a catalog number of 6007299. The Diluent buffer in the kit was used to dilute the compound into 10× compound solution of different concentrations, and 2 uL was added to each well of the 384-well plate. Tag2-KRAS G12D protein and GTP were formulated into a mixed solution of 5×KRAS G12D-GTP protein using Diluent buffer, and Tag1-SOS1 protein was formulated into a 5×SOS1 protein solution using Diluent buffer. Each solution was added to the 384-well plate separately at 4 uL per well, and incubated at room temperature for 15 min. A mixed solution of 2× anti-Tag1-Tb^3+ and anti-Tag2-XL665 formulated using detection buffer was added to the 384-well plate at 10 µL per well, and incubated at 4°C in the dark for 3 h.

Data set [4] has as its system AsPC-1. Nature of the data set: Inhibition of proliferation of KRAS G12D mutant tumor cell line AsPC-1 (CellTiter-Glo). Type of data set: cell-based. The following applies: Homo sapiens, ASPC1, about 72 h. Summed up: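 KRAS G12D-mutant AsPC-1 cells plated overnight at 37 °C/5% CO2, then exposed to serial compound dilutions (DMSO/medium, vehicle control) for about 72 h. Viability read by CellTiter-Glo luminescence; inhibition rate vs concentration fitted by nonlinear regression for IC50.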

A short description of data set [5]: Pharmacokinetic determination in mice (IV and PO, plasma, LCMS/MS). Type of data set: in vivo, Balb/c mice. The note with it: male, Balb/c, mouse, in vivo, iv, 1 mg/kg. The method, boiled down:
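Male Balb/c mice, fasted overnight (n=3 per route): PO 30 mg/kg in 10% Captisol/50 mM citrate pH 5.0, or IV 1 mg/kg in 5% DMSO/10% Solutol HS15/85% PBS. Orbital blood sampled predose to 24 h; EDTA plasma analysed by LC-MS/MS.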

Chain of KRAS WT (P01116 1-188 isoform P01116-2): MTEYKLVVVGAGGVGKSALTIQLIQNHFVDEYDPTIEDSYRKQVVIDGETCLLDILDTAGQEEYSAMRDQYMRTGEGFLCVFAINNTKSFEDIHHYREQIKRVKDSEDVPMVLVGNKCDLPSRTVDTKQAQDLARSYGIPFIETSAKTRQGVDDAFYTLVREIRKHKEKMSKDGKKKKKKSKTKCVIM
T1 sequence (P01116 1-188 isoform P01116-2 G12D): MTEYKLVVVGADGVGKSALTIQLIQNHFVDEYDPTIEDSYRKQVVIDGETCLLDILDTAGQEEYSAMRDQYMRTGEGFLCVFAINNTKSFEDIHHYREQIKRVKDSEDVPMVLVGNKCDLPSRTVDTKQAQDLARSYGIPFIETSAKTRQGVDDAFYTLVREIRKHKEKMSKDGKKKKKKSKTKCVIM

For orientation: IC50 means the concentration that inhibits the measured activity by half. `C#Cc1c(F)ccc2cc(O)cc(-c3nc4c5c(nc(OCC6(CN7CCC(=C(F)F)C7)CC6)nc5c3F)N3CC5CCC(N5)C3CO4)c12` (centres unmarked) [Example 14-1]: the IC50 was found to be 1.5 nM in data set [1], 153 nM in data set [2] and 4.3 nM in data set [3].
For the compound `C#Cc1c(F)ccc2cc(O)cc(-c3nc4c5c(nc(OCC6(CN7CCC(=CF)C7)CC6)nc5c3F)N3CC5CCC(N5)C3CO4)c12` (centres unmarked) [Example 15-1], the figures for the IC50 in data set [1], in data set [2] and in data set [3] were 0.76 nM, 26 nM and 3 nM, respectively.
As to `C#Cc1c(F)ccc2cc(O)cc(-c3nc4c5c(nc(OCC6(CN7CC8CC(=C(F)F)CC8C7)CC6)nc5c3F)N3CC5CCC(N5)C3CO4)c12` (centres unmarked) [Example 17-1], the figures for the IC50 in data set [1], in data set [2] and in data set [3] were 1.2 nM, 58 nM and 2.6 nM, respectively.
By AUC is commonly meant concentration integrated over time. Low readings indicate low exposure, high ones high exposure. What is called half-life is the time in which the quantity being followed falls by half. A high value points to slow loss. As to `C#Cc1c(F)ccc2cc(O)cc(-c3nc4c5c(nc(OCC6(CN7CCC(=NOC)CC7)CC6)nc5c3F)N3CC5CCC(N5)C3CO4)c12` [Example 21-1, 1-((1-((((5aS,6S,9R)-2-(8-ethynyl-7-fluoro-3-hydroxylnaphthalen-1-yl)-1-fluoro-5a,6,7,8,9,10-hexahydro-5H-4-oxa-3,10a,11,13,14-pentaaza-6,9-methylnaphtho[1,8-ab]hept-12-yl)oxy)methyl)cyclopropyl)methyl)piperidine-4-one-oxo-methyloxime], in data set [1], the IC50 was 0.75 nM. Further, the IC50 in data set [2] was 60 nM. Moreover, the IC50 in data set [4] stood at 3.1 nM. Besides, the IC50 in data set [3] came out at 1.9 nM. For the same compound, in data set [5], the AUC worked out at 253 ng·h/mL, the C0 was 939 ng/mL, the clearance is 14.1 mL/min/kg and the half-life is 546 min.
